In ChEMBL document CHEMBL1201862, “PubChem BioAssay data set” (2004):
The source made the active and inactive calls.

What was measured:
[1] = microbe, parasite or virus in culture; format: functional; conditions: Mycobacterium tuberculosis
[2] = biological target: Melanocortin receptor 4 (Homo sapiens, UniProt P32245); format: functional, cell-based;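 note: Cell-based assay with luminescence read-out, confirmatory dose-response testing for agonist activity of biased ligands at MC4R; human U2OS cells with tagged receptor and beta-arrestin; potency of agonists that increase receptor coupling to beta-arrestin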
[3] = cytotoxicity toward NIH3T3 fibroblasts, dose response, counter-screen, cell-based, ATP luminescence, mouse fibroblasts (AID 2010); format: functional;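 note: cells exposed to compound for about 90 hours before reading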
[4] = inhibitors of intracellular T. cruzi replication, confirmation, NIH3T3 host cells, beta-gal luminescence (AID 2044); format: functional, cell-based;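 note: intracellular parasites grown in NIH/3T3 mouse fibroblasts as host cells; luminescent beta-galactosidase reporter signal from transgenic T. cruzi replicating inside host cells; inhibitors lower the luminescence signal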
[5] = Vero E6 cell cytotoxicity, dose response, cytotoxicity control for non-replicating M. tuberculosis project, secondary assay (AID 492998); format: functional, VeroE6; conditions: Vero C1008
[6] = cells; format: functional
[7] = HEp-2 cell cytotoxicity, dose response, cytotoxicity control for RSV inhibitor project, HTS (AID 2410); format: functional; conditions: human respiratory syncytial virus
[8] = cells
[9] = system: Vero; experiment: cells; format: functional, cell-based; conditions: Chlorocebus sabaeus
[10] = biological target: T1, High affinity choline transporter 1 (Homo sapiens, UniProt Q9GZV3); experiment: CHT inhibitors, dose response, cell-based, 5-point CRC, membrane potential dye (AID 504840); format: functional
T1 sequence (Q9GZV3 whole entry): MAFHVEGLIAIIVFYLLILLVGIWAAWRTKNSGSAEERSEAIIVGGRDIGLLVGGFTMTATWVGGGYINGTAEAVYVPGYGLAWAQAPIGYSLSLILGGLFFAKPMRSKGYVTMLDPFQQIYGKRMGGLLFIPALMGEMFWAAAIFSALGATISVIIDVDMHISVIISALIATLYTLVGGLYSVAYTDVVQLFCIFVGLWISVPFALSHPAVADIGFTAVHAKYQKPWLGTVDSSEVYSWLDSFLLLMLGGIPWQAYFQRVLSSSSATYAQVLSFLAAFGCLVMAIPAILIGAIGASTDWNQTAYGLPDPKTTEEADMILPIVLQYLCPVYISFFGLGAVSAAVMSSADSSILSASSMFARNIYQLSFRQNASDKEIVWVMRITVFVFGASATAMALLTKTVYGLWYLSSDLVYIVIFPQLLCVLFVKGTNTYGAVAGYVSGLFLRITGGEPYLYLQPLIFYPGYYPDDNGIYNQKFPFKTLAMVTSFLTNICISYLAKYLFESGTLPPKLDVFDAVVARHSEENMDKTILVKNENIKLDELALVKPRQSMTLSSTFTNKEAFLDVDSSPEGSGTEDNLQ

[11] = system: Vero; experiment: cells; format: functional; conditions: Chlorocebus sabaeus
[12] = biological target: Dual specificity tyrosine-phosphorylation-regulated kinase 1A (Rattus norvegicus, UniProt Q63470); format: biochemical, Homo sapiens
[13] = system: H4; experiment: Luminescence Cell-Based Dose Response HTS to Identify Activators of 5'UTR Stem-Loop Driven Prion Protein mRNA Translation in H4 Neuroglioblastoma Cells. [Related pubchem assays: 1829 (Project Summary), 1814 (Primary HTS)]; format: functional; conditions: Homo sapiens
[14] = Luminescence Cell-Based Dose Response HTS to Identify Activators of Luciferase Translation or Activity in H4 […] Cells. [Related pubchem assays: 1829 (Project Summary), 1814 (Primary HTS)]; format: functional
[15] = THP-1 cell cytotoxicity, dose response, cytotoxicity control for non-replicating M. tuberculosis project (AID 489025); format: functional
[16] = cytotoxicity in HEK-293T cells, dose response, cytotoxicity control for BCR NF-kB inhibitor project, luminescence, B-cell screen hits (AID 489021); format: functional, cell-based;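 note: HEK-293T cells carrying an NF-kB luciferase reporter; cells exposed to compound for about 14 hours before viability readout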
[17] = Luminescence Cell-Based Dose Confirmation HTS to Identify Activators of 5'UTR Stem-Loop Driven Alpha-Synuclein mRNA Translation in H4 Neuroglioblastoma Cells. [Related pubchem assays: 1829 (Project Summary), 1814 (Primary HTS)]; format: functional
[18] = biological target: FAD-linked sulfhydryl oxidase ALR (Homo sapiens, UniProt P55789); experiment: inhibitors of human ALR sulfhydryl oxidase, dose response, biochemical, H2O2 detection, luminescence, cherry-pick (AID 493248)
[19] = biological target: T2, Polyadenylate-binding protein 1 (Homo sapiens, UniProt P11940); experiment: PABP1 MLLE–PAM2 interaction inhibitors, dose response, miRNA deadenylation inhibitor project, biochemical, fluorescence polarization, Cy5-PAM2 peptide, secondary (AID 602260); format: functional; conditions: read-out: IC50_Mean
[20] = biological target: T2, Polyadenylate-binding protein 1; experiment: PABP1 MLLE–PAM2 binding inhibitor potency, dose response, biochemical, fluorescence polarization, FITC-PAM2 peptide (AID 602259); format: functional; conditions: read-out: IC50_Mean
[21] = system: HEK293; experiment: cells; conditions: Homo sapiens
[22] = system: HEK293; experiment: cells; conditions: Homo sapiens; remark: listed apart in the source
[23] = HeLa cell cytotoxicity, dose response, cytotoxicity control for MgcRacGAP inhibitor project (AID 624300); format: functional
[24] = Luminescence Cell-Based Dose Retest to Confirm Inhibitors of Cancer Stem Cells. [Related pubchem assays (depositor defined):AID2717, AID2721]; format: functional; conditions: Homo sapiens
[25] = biological target: T3, Histone-lysine N-methyltransferase NSD2 (Homo sapiens, UniProt O96028); format: biochemical
T3 sequence (O96028 whole entry): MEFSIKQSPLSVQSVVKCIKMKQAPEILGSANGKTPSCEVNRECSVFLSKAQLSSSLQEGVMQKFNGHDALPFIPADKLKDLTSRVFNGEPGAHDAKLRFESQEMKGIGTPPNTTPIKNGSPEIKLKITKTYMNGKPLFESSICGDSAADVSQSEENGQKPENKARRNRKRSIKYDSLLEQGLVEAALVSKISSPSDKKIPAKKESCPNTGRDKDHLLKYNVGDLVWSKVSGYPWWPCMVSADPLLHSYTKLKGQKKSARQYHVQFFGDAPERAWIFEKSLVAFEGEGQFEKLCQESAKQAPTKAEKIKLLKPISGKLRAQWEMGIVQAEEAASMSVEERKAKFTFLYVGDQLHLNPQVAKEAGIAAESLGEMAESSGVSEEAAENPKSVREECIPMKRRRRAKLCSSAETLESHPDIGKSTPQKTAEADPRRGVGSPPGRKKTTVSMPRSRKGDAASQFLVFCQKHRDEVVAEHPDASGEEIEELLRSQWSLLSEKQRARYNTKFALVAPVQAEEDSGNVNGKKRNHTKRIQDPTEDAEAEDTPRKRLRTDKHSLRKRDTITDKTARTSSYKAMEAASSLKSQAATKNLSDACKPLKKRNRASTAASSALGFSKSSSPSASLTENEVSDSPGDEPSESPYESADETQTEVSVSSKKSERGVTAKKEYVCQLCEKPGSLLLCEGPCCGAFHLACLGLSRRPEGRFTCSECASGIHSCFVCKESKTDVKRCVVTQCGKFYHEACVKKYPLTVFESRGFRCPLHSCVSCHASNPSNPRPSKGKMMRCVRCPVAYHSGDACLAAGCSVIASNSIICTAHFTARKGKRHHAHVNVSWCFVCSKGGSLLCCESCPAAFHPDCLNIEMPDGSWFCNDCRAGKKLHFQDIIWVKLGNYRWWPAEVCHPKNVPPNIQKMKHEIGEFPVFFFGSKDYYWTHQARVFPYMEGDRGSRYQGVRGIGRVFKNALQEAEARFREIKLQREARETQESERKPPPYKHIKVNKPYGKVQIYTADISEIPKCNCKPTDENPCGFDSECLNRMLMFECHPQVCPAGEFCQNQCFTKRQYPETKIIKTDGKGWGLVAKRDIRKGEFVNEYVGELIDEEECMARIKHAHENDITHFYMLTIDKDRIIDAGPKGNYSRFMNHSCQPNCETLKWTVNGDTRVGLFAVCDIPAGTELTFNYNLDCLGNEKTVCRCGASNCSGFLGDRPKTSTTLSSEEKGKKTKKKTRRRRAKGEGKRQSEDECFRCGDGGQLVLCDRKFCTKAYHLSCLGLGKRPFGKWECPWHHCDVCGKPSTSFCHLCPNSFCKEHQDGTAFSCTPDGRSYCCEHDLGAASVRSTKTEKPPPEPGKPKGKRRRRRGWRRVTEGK

[26] = biological target: T4, Sentrin-specific protease 8 (Homo sapiens, UniProt Q96LD8); format: functional
T4 sequence (Q96LD8 whole entry): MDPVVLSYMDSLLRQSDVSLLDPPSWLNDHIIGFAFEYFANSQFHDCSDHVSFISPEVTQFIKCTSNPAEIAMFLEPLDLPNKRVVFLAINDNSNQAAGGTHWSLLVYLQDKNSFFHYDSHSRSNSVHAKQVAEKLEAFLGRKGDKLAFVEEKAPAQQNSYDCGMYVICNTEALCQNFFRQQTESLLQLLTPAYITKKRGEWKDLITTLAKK

[27] = biological target: T4, Sentrin-specific protease 8; format: functional; remark: listed apart in the source
[28] = Fluorescence-based cell-based high throughput dose response assay for inhibitors of the interaction of nucleotide-binding oligomerization domain containing 2 (NOD2) and the receptor-interacting serine-threonine kinase 2 (RIPK2).; format: functional; conditions: Homo sapiens
[29] = biological target: T5, Low molecular weight phosphotyrosine protein phosphatase (Homo sapiens, UniProt P24666); format: functional; conditions: read-out: IC50_Mean
T5 sequence (P24666 whole entry): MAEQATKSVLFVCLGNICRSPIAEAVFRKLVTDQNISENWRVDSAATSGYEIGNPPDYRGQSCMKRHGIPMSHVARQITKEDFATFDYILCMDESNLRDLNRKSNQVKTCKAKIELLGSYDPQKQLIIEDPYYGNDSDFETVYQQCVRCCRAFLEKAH

[30] = biological target: T5, Low molecular weight phosphotyrosine protein phosphatase; format: functional; conditions: read-out: IC50_Mean; remark: listed apart in the source
[31] = biological target: T6, Mannose-6-phosphate isomerase (Homo sapiens, UniProt P34949); experiment: human PMI inhibitors, high substrate, primary screen, biochemical, fluorescence intensity, high mannose 6-phosphate (AID 1220)
T6 sequence (P34949 whole entry): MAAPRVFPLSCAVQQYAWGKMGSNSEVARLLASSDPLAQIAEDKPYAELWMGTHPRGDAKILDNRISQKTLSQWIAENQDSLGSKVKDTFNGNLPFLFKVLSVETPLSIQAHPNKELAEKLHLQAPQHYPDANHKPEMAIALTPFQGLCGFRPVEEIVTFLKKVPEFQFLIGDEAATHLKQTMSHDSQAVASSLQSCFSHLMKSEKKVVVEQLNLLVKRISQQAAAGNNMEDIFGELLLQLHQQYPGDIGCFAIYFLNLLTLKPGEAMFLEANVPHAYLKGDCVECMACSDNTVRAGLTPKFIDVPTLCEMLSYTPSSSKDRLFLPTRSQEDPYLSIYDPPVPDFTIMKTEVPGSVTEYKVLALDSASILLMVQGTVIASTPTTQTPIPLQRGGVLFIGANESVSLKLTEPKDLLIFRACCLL

T2 sequence (P11940 whole entry): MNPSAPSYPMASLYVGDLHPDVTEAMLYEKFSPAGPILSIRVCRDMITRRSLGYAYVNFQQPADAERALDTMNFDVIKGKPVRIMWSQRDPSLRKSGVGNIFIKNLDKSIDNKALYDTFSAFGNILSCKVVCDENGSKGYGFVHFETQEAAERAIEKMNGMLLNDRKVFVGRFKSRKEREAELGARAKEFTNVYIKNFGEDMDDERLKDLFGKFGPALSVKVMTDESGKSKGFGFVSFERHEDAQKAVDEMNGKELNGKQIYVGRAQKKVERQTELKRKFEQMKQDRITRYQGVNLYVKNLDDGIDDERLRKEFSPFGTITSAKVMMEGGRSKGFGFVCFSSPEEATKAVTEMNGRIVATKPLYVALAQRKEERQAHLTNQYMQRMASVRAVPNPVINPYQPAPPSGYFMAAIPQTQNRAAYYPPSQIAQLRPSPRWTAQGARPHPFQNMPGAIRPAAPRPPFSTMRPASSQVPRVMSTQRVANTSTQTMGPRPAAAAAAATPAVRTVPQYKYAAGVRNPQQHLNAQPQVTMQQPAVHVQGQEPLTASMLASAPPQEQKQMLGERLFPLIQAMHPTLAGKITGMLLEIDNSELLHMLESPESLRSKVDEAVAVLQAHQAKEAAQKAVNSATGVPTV
Chain of FAD-linked sulfhydryl oxidase ALR (P55789 whole entry): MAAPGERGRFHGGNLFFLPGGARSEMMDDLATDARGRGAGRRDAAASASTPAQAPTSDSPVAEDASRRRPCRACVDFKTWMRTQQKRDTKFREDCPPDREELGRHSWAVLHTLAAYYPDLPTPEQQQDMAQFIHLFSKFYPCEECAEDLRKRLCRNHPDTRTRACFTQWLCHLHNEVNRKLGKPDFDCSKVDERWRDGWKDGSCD
Chain of Melanocortin receptor 4 (P32245 whole entry): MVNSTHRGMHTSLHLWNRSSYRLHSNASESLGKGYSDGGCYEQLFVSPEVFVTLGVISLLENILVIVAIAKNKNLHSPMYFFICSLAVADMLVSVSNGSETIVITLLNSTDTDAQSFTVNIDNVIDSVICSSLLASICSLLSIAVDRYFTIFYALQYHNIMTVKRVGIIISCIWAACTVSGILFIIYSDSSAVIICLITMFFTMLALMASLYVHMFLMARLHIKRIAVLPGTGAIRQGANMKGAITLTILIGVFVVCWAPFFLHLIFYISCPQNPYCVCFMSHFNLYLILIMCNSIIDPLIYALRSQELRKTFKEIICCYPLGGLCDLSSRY

For `Cc1ccc(CN2CCC(c3cc(-c4ccc(Cl)cc4)[nH]n3)CC2)cc1`, the CC50 [1] was > 40 µM (active) and the EC50 [2] was > 89.2 µM (inactive).
In the case of `Cc1ccc(C)c(-c2csc(NC(=O)c3cnccn3)n2)c1`, the EC50 [3] is reported as 10.4 µM (active), the EC50 [4] is reported as 2.04 µM (active) and the CC50 [5] is reported as 17.6 µM (active). For the same compound, the IC50 [6] was 3.99 µM (active).
With `O=c1c2ccccc2[nH]c(=S)n1CCCN1CCN(c2ccccc2)CC1` the CC50 [7] was > 12.5 µM (active), the EC50 [8] was 0.169 µM (active) and the EC50 [3] was > 60 µM (not active). The EC50 [4] was < 0.1 µM (active) and the IC50 [9] was > 25 µM (active).
In the case of `Cc1ccc(Oc2ccc(NC(=O)Cn3ccsc3=N)cc2)cc1`, the CC50 [7] is reported as 15.7 µM (active), the IC50 [10] is reported as 13.2 µM (active) and the IC50 [9] is reported as > 25 µM (active). For the same compound, the CC50 [11] was 19.1 µM (active).
In the case of `O=C1NC(=O)/C(=C\c2ccc(Oc3cnccn3)cc2)S1`, the AC50 [12] is reported as 4.71 µM (active).
With `Cn1cnc([N+](=O)[O-])c1Sc1ccc([N+](=O)[O-])cc1` the EC50 [13] was > 120 µM (not active), the CC50 [5] was > 20 µM (active) and the EC50 [14] was > 120 µM (not active). For the same compound, the CC50 [15] was > 40 µM (active), the IC50 [6] was 10.8 µM (active) and the IC50 [16] was > 80 µM (inactive). The EC50 [17] was > 120 µM (not active), the AC50 [18] was 8.39 µM (active) and the IC50 [19] was > 66 µM (inactive). The IC50 [20] was > 66 µM (inactive).
In the case of `Cc1cc(C(=O)N/N=C/c2ccc(Cl)c([N+](=O)[O-])c2)c(C)n1-c1ccc(F)cc1`, the EC50 [21] is reported as > 59.7 µM (inactive) and the EC50 [22] is reported as > 59.7 µM (inactive).
In the case of `O=c1c2ccccc2[nH]c(=S)n1CCCN1CCN(c2ccccc2F)CC1`, the IC50 [9] is reported as > 25 µM (active).
For `Cc1ccc(-c2nn[nH]n2)cc1Cl`, the AC50 [12] was 9.99 µM (active).
In the case of `CCOC(=O)/C(C#N)=C\c1c(OCC)n(CC)c2ccccc12`, the CC50 [23] is reported as 100 µM (active).
For `Cc1ccc(N(C(=O)Cc2cccs2)C(C(=O)NC2CCCCC2)c2ccccn2)cc1C` (configuration not stated), the EC50 [21] was > 59.6 µM (inactive) and the EC50 [22] was > 0.245 µM (active).
With `Cc1ccc(N2C(=O)NC(=O)/C(=C\C=C\c3ccco3)C2=O)cc1` the EC50 [21] was > 59.6 µM (inactive), the AC50 [24] was 2.98 µM (active) and the AC50 [25] was > 20 µM (inactive). For the same compound, the EC50 [22] was > 59.6 µM (inactive).
For `O=C(O)c1cccc(N2C(=O)c3ccc4c5c(ccc(c35)C2=O)C(=O)N(c2cccc(C(=O)O)c2)C4=O)c1`, the IC50 [26] was 13.7 µM (active) and the IC50 [27] was 16.5 µM (active).
In the case of `CC(NC(=O)CN(c1cccc(C(F)(F)F)c1)S(=O)(=O)c1ccc(Cl)c([N+](=O)[O-])c1)c1ccccc1` (configuration not stated), the IC50 [28] is reported as 15.6 µM (inactive).
For `Fc1ccccc1-c1nc(NCCCN2CCOCC2)c2ccccc2n1`, the IC50 [29] was 13 µM (active) and the IC50 [30] was 33 µM (inactive).
For `CN(C)C=O.Cc1cc(-c2ccco2)c(C#N)c2nc3ccccc3n12`, the IC50 [29] was 37.5 µM (inactive), the IC50 [30] was > 80 µM (inactive) and the IC50 [31] was > 50 µM (not active).
For `N#CC1=C(SCc2ccc(C#N)cc2)N=C(N)C(c2nc(-c3ccccc3)cs2)C12CCCCC2` (configuration not stated), the EC50 [21] was > 59.6 µM (inactive) and the EC50 [22] was > 59.6 µM (inactive).
